Source: patent US20050148523A1, “Method of treating HIV infection in atazanavir-resistant patients using a combination of atazanavir and another protease inhibitor” (priority 2003, published 2005)

Assays:
[1] = tested on: clinical isolates containing an I50L substitution (and their baseline isolates); assay: PhenoSense phenotypic susceptibility of clinical isolates from ATV-treated patients who developed I50L; format: cell-based, HIV-1; details: for Subceptibility, Fold Change in EC50 relative to reference strain: Subject 169, Week 114; for median increase in susceptibility from baseline: on emergence of I50L, n=4 to 15; for percentage of I50L isolates with susceptibility (FC) 0.4-fold or lower: relative to the reference strain
From the text: Study Population. Viral samples (baseline and on-treatment, where available) were obtained from patients who experienced virologic failure while enrolled in studies AI424-007/041 [12] (ATV+d4T and ddI), AI424-008/044 [13, 14] (ATV+d4T and 3TC) and AI424-034 [9] (ATV or EFV in combination with ZDV and 3TC). […] In general, virologic failure specimens were selected for further resistance evaluation only if they contained >1,000 copies/mL HIV-1 RNA and there was no indication that the specimen came from a patient at a time of transient non-adherence to study drug(s). […] For non-responders, samples from week 16 (or 24) were tested. Drug adherence was determined from pill counts of returned study medications at each scheduled visit.
(§1) Drug Susceptibility Assays. Clinical isolates were subjected to phenotypic (PhenoSense™) and genotypic (GeneSeq™) analysis by Virologic, Inc. as described elsewhere.

[2] = tested on: clinical isolates containing an I50V; assay: PhenoSense phenotypic susceptibility of clinical isolates containing I50V; format: cell-based, HIV-1
From the text: as §1
Because an I50V substitution is a signature mutation sometimes associated with APV resistance, the cross-resistance relationship between ATV and APV was further examined.

[3] = tested on: clinical isolates containing a D30N substitution; assay: PhenoSense phenotypic susceptibility of clinical isolates containing D30N; format: cell-based, HIV-1; details: 75 D30N containing isolates, FIG. 3
Protocol: as §1
Comparative Studies of I50L and D30N Containing Viruses. […] Comparative studies were performed on the 18 phenotyped viruses containing an I50L and 75 clinical isolates containing a D30N substitution without evidence of cross-resistance (FC≧2.5) to other PIs.

[4] = tested on: recombinant HIV-1 viruses (NL4-3, RF, LAI) in MT-2 cells; assay: MT-2 cell susceptibility assay of recombinant viruses; format: cell-based; details: all three viral strains, I50L or I50L/A71V introduced by site-directed mutagenesis
Protocol: Cells and Viruses. MT-2 cells, HIV-1 RF, HIV1-LAI, and the HIV-1 NL4-3 proviral clones were obtained through the AIDS Research and Reference Reagent Program, National Institutes of Health. MT-2 cells were cultured in RPMI 1640 medium supplemented with 10% fetal bovine serum, 2 mM L-glutamine, and 10 mM Hepes buffer. HIV-1 viruses were generated by transient transfection of the proviral DNA into Human Embryonic Kidney 293 cells using Lipofectamine reagents (Gibco BRL). The viruses were harvested 72 hr post-transfection, amplified in MT-2 cells, and titered in the same cells using a virus yield assay.
Recombinant HIV-1 Variants and Chimeric NL4-3 Proviral Clones. HIV-1 strains with defined substitutions in the protease gene were generated by QuikChange® site-directed mutagenesis as recommended by the manufacturer (Stratagene). Recombinant NL4-3 and LAI proviral clones containing the wild-type and mutant protease genes from RF and clinical isolates were constructed by replacing the SseI/ApaI fragment of pNL4-3 with the appropriate SseI/ApaI protease fragments.
Recombinant viruses (generated separately from those made for PhenoSense assays) were tested in an MT-2 cell susceptibility assay at Bristol Myers Squibb. MT-2 cells were infected with recombinant viruses at a multiplicity of infection (MOI) of 0.005 50% tissue culture infective doses (TCID50)/cell followed by incubation in the presence or absence of serially diluted protease inhibitors for 4 to 7 days. Virus yields were quantified using a RT assay as previously described. The results from at least four independent experiments were used to calculate the EC50.

[5] = tested on: clinical isolates from patients on NFV regimens; details: isolates containing D30N as the only primary PI mutation; cited from earlier work
[6] = tested on: HIV-1 variants containing I50V; details: in vitro; cited from earlier work

CC(C)CN(C[C@@H](O)[C@H](Cc1ccccc1)NC(=O)O[C@H]1CCOC1)S(=O)(=O)c1ccc(N)cc1 [APV, amprenavir]
cross-resistance ([1]; I50L containing clinical isolates): none of the I50L containing clinical isolates showed evidence of APV resistance | Susceptibility, Fold Change in EC50 relative to reference strain ([1]; Isolate with I50L 1): 0.3 Fold Change | Susceptibility, Fold Change in EC50 relative to reference strain ([1]; Isolate with I50L 2): 0.6 Fold Change | Susceptibility, Fold Change in EC50 relative to reference strain ([1]; Isolate with I50L 3): 0.5 Fold Change | Susceptibility, Fold Change in EC50 relative to reference strain ([1]; Isolate with I50L 4): 0.4 Fold Change | Susceptibility, Fold Change in EC50 relative to reference strain ([1]; Isolate with I50L 5): 0.6 Fold Change | Susceptibility, Fold Change in EC50 relative to reference strain ([1]; Isolate with I50L 6): 0.4 Fold Change | Susceptibility, Fold Change in EC50 relative to reference strain ([1]; Isolate with I50L 7): 0.6 Fold Change | Susceptibility, Fold Change in EC50 relative to reference strain ([1]; Isolate with I50L 8): 0.8 Fold Change | Susceptibility, Fold Change in EC50 relative to reference strain ([1]; Isolate with I50L 9): 0.6 Fold Change | Susceptibility, Fold Change in EC50 relative to reference strain ([1]; Isolate with I50L 10): 0.3 Fold Change | Susceptibility, Fold Change in EC50 relative to reference strain ([1]; Isolate with I50L 11): 0.4 Fold Change | Susceptibility, Fold Change in EC50 relative to reference strain ([1]; Isolate with I50L 12): 0.7 Fold Change | Susceptibility, Fold Change in EC50 relative to reference strain ([1]; Isolate with I50L 13): 0.7 Fold Change | Susceptibility, Fold Change in EC50 relative to reference strain ([1]; Isolate with I50L 14): 0.8 Fold Change | Susceptibility, Fold Change in EC50 relative to reference strain ([1]; Isolate with I50L 15): 0.9 Fold Change | Susceptibility, Fold Change in EC50 relative to reference strain ([1]; Isolate with I50L 16): 0.4 Fold Change | Susceptibility, Fold Change in EC50 relative to reference strain ([1]; Subject 076, Week 80): 0.6 Fold Change | Susceptibility, Fold Change in EC50 relative to reference strain ([1]; Subject 076, Week 92): 0.9 Fold Change | Susceptibility, Fold Change in EC50 relative to reference strain ([1]; Subject 100, Week 1.7): 1.5 Fold Change | Susceptibility, Fold Change in EC50 relative to reference strain ([1]; Subject 169, Week 0.1): 0.6 Fold Change | Susceptibility, Fold Change in EC50 relative to reference strain ([1]; Subject 169, Week 90): 0.7 Fold Change | Susceptibility, Fold Change in EC50 relative to reference strain ([1]; Subject 169, Week 102): 0.6 Fold Change | Subceptibility, Fold Change in EC50 relative to reference strain [1]: 1.2 Fold Change | Susceptibility, Fold Change in EC50 relative to reference strain ([1]; Subject 362, Week 0.1): 1.0 Fold Change | Susceptibility, Fold Change in EC50 relative to reference strain ([1]; Subject 362, Week 108): 1.1 Fold Change | percentage of baseline isolates exhibiting a FC≦0.4 [1]: 21% | median increase in susceptibility from baseline [1]: 1.5 fold | percentage of I50L isolates with susceptibility (FC) 0.4-fold or lower [1]: 39% | Susceptibility, Fold Change in EC50 relative to reference strain ([2]; Isolate with I50V 1): 3.5 Fold Change | Susceptibility, Fold Change in EC50 relative to reference strain ([2]; Isolate with I50V 2): 4.2 Fold Change | Susceptibility, Fold Change in EC50 relative to reference strain ([2]; Isolate with I50V 3): 8.0 Fold Change | Susceptibility, Fold Change in EC50 relative to reference strain ([2]; Isolate with I50V 4): 9.4 Fold Change | Susceptibility, Fold Change in EC50 relative to reference strain ([2]; Isolate with I50V 5): 11 Fold Change | Susceptibility, Fold Change in EC50 relative to reference strain ([2]; Isolate with I50V 6): 11 Fold Change | Susceptibility, Fold Change in EC50 relative to reference strain ([2]; Isolate with I50V 7): 12 Fold Change | Susceptibility, Fold Change in EC50 relative to reference strain ([2]; Isolate with I50V 8): 14 Fold Change | median FC [3]: 0.6 | change in susceptibility [4]: enhanced susceptibility | susceptibility [5]: remained susceptible

CC(C)(C)NC(=O)[C@@H]1CN(Cc2cccnc2)CCN1C[C@@H](O)C[C@@H](Cc1ccccc1)C(=O)N[C@H]1c2ccccc2C[C@H]1O [IDV, indinavir]
Susceptibility, Fold Change in EC50 relative to reference strain ([1]; Subject 076, Week 80): 0.4 Fold Change | Susceptibility, Fold Change in EC50 relative to reference strain ([1]; Subject 076, Week 92): 0.5 Fold Change | Susceptibility, Fold Change in EC50 relative to reference strain ([1]; Subject 100, Week 1.7): 1.6 Fold Change | Susceptibility, Fold Change in EC50 relative to reference strain ([1]; Subject 169, Week 0.1): 0.8 Fold Change | Susceptibility, Fold Change in EC50 relative to reference strain ([1]; Subject 169, Week 90): 0.5 Fold Change | Susceptibility, Fold Change in EC50 relative to reference strain ([1]; Subject 169, Week 102): 0.4 Fold Change | Subceptibility, Fold Change in EC50 relative to reference strain [1]: 0.4 Fold Change | Susceptibility, Fold Change in EC50 relative to reference strain ([1]; Subject 362, Week 0.1): 1.3 Fold Change | Susceptibility, Fold Change in EC50 relative to reference strain ([1]; Subject 362, Week 108): 0.7 Fold Change | percentage of baseline isolates exhibiting a FC≦0.4 [1]: 0% | median increase in susceptibility from baseline [1]: 2.0 fold | percentage of I50L isolates with susceptibility (FC) 0.4-fold or lower [1]: 58% | median FC [1]: ≤ 0.4 | median FC [3]: small median decreases in susceptibility | change in susceptibility [4]: enhanced susceptibility | susceptibility [5]: remained susceptible | effect of I50V on susceptibility [6]: increased susceptibility

Cc1cccc(C)c1OCC(=O)N[C@@H](Cc1ccccc1)[C@@H](O)C[C@H](Cc1ccccc1)NC(=O)[C@H](C(C)C)N1CCCNC1=O [LPV, lopinavir]
Susceptibility, Fold Change in EC50 relative to reference strain ([1]; Subject 076, Week 80): 0.6 Fold Change | Susceptibility, Fold Change in EC50 relative to reference strain ([1]; Subject 076, Week 92): 0.5 Fold Change | percentage of baseline isolates exhibiting a FC≦0.4 [1]: 0% | median increase in susceptibility from baseline [1]: 3.2 fold | percentage of I50L isolates with susceptibility (FC) 0.4-fold or lower [1]: 100% | median FC [1]: ≤ 0.4 | change in susceptibility [4]: enhanced susceptibility | effect of I50V on susceptibility [6]: reduced susceptibility

CC(C)c1nc(CN(C)C(=O)N[C@H](C(=O)N[C@@H](Cc2ccccc2)C[C@H](O)[C@H](Cc2ccccc2)NC(=O)OCc2cncs2)C(C)C)cs1 [RTV, ritonavir]
Susceptibility, Fold Change in EC50 relative to reference strain ([1]; Subject 076, Week 80): 0.3 Fold Change | Susceptibility, Fold Change in EC50 relative to reference strain ([1]; Subject 076, Week 92): 0.3 Fold Change | Susceptibility, Fold Change in EC50 relative to reference strain ([1]; Subject 100, Week 1.7): 2.2 Fold Change | Susceptibility, Fold Change in EC50 relative to reference strain ([1]; Subject 169, Week 0.1): 1.5 Fold Change | Susceptibility, Fold Change in EC50 relative to reference strain ([1]; Subject 169, Week 90): 0.3 Fold Change | Susceptibility, Fold Change in EC50 relative to reference strain ([1]; Subject 169, Week 102): 0.3 Fold Change | Subceptibility, Fold Change in EC50 relative to reference strain [1]: 0.4 Fold Change | Susceptibility, Fold Change in EC50 relative to reference strain ([1]; Subject 362, Week 0.1): 1.1 Fold Change | Susceptibility, Fold Change in EC50 relative to reference strain ([1]; Subject 362, Week 108): 0.4 Fold Change | percentage of baseline isolates exhibiting a FC≦0.4 [1]: 10% | median increase in susceptibility from baseline [1]: 4.1 fold | percentage of I50L isolates with susceptibility (FC) 0.4-fold or lower [1]: 83% | median FC [1]: ≤ 0.4 | change in susceptibility [4]: enhanced susceptibility | susceptibility [5]: remained susceptible | effect of I50V on susceptibility [6]: reduced susceptibility

CC(C)(C)NC(=O)[C@@H]1C[C@@H]2CCCC[C@@H]2CN1C[C@@H](O)[C@H](Cc1ccccc1)NC(=O)[C@H](CC(N)=O)NC(=O)c1ccc2ccccc2n1 [SQV, saquinavir]
Susceptibility, Fold Change in EC50 relative to reference strain ([1]; Subject 076, Week 80): 0.3 Fold Change | Susceptibility, Fold Change in EC50 relative to reference strain ([1]; Subject 076, Week 92): 0.5 Fold Change | Susceptibility, Fold Change in EC50 relative to reference strain ([1]; Subject 100, Week 1.7): 1.3 Fold Change | Susceptibility, Fold Change in EC50 relative to reference strain ([1]; Subject 169, Week 0.1): 0.8 Fold Change | Susceptibility, Fold Change in EC50 relative to reference strain ([1]; Subject 169, Week 90): 0.5 Fold Change | Susceptibility, Fold Change in EC50 relative to reference strain ([1]; Subject 169, Week 102): 0.4 Fold Change | Subceptibility, Fold Change in EC50 relative to reference strain [1]: 0.5 Fold Change | Susceptibility, Fold Change in EC50 relative to reference strain ([1]; Subject 362, Week 0.1): 1.0 Fold Change | Susceptibility, Fold Change in EC50 relative to reference strain ([1]; Subject 362, Week 108): 0.5 Fold Change | percentage of baseline isolates exhibiting a FC≦0.4 [1]: 10% | median increase in susceptibility from baseline [1]: 2.0 fold | percentage of I50L isolates with susceptibility (FC) 0.4-fold or lower [1]: 72% | median FC [1]: ≤ 0.4 | change in susceptibility [4]: enhanced susceptibility | susceptibility [5]: remained susceptible | effect of I50V on susceptibility [6]: increased susceptibility
